Results taken from PMC6694038, “Pharmacogenomic–pharmacokinetic study of selective estrogen-receptor modulators with intra-patient dose escalation in breast cancer” (Breast Cancer (Tokyo, Japan), 2019).
Like-named read-outs stand apart in the source and are kept apart here.

Columns and labels:
[1] = Description: Written informed consent was obtained from all the participants included in the study. The patient enrolment period for the screening study started on February 1, 2009 and ended on July 31, 2012.
We obtained data on compliance and the grade of hot flush as defined by the Common Terminology Criteria for Adverse Events v3.0.
The p value was not calculated if there were no events.

[2] = weighting of plasma concentration; cited from earlier work
[3] = TOR versus TAM, seven randomized-controlled trials; cited from earlier work
[4] = Plasma concentrations of TAM, TOR and their metabolites by LC–MS/MS (screening study); settings: TOR 120 mg for up to 6 months

## CN(C)CCOc1ccc(/C(=C(/CCCl)c2ccccc2)c2ccccc2)cc1 [TOR, toremifene]
[1]; TOR 120 mg (1)
  Hyperglycemia All grade, % of patients: 0 (0) %
  Hyperglycemia All grade, patients: 0 (0)
  Hyperglycemia ≧ G2, % of patients: 0 (0) %
  Hyperglycemia ≧ G2, patients: 0 (0)
  LDH elevation All grade, % of patients: 7.1%
  LDH elevation All grade, patients: 1
  LDH elevation ≧ G2, % of patients: 7.1%
  LDH elevation ≧ G2, patients: 1
  LDL elevation All grade, % of patients: 14.3%
  LDL elevation All grade, patients: 1
  LDL elevation ≧ G2, % of patients: 0 (0) %
  LDL elevation ≧ G2, patients: 0 (0)
  Low PLT All grade, % of patients: 0 (0) %
  Low PLT All grade, patients: 0 (0)
  Low PLT ≧ G2, % of patients: 0 (0) %
  Low PLT ≧ G2, patients: 0 (0)
  Low WBC All grade, % of patients: 11.1%
  Low WBC All grade, patients: 1
  Low WBC ≧ G2, % of patients: 11.1%
  Low WBC ≧ G2, patients: 1
  T. Bil elevation All grade, % of patients: 0 (0) %
  T. Bil elevation All grade, patients: 0 (0)
  T. Bil elevation ≧ G2, % of patients: 0 (0) %
  T. Bil elevation ≧ G2, patients: 0 (0)
  TG elevation All grade, % of patients: 0 (0) %
  TG elevation All grade, patients: 0 (0)
  TG elevation ≧ G2, % of patients: 0 (0) %
  TG elevation ≧ G2, patients: 0 (0)
  Weight, max: 73.5 kg
  Weight, mean: 53.4 kg
  Weight, median: 51.0 kg
  Weight, min: 45.0 kg
[1]; TOR 120 mg (2)
  Cre elevation All grade, % of patients: 16.7%
  Cre elevation All grade, patients: 2
  Cre elevation ≧ G2, % of patients: 0 (0) %
  Cre elevation ≧ G2, patients: 0 (0)
  GOT elevation All grade, % of patients: 8.3%
  GOT elevation All grade, patients: 1
  GOT elevation ≧ G2, % of patients: 0 (0) %
  GOT elevation ≧ G2, patients: 0 (0)
  GPT elevation All grade, % of patients: 8.3%
  GPT elevation All grade, patients: 1
  GPT elevation ≧ G2, % of patients: 0 (0) %
  GPT elevation ≧ G2, patients: 0 (0)
  Hot flush G0, % of patients: 75.0%
  Hot flush G0, patients: 9
  Hot flush G1, % of patients: 8.3%
  Hot flush G1, patients: 1
  Hot flush G2, % of patients: 16.7%
  Hot flush G2, patients: 2
  Hyperglycemia All grade, % of patients: 7.1%
  Hyperglycemia All grade, patients: 1
  Hyperglycemia ≧ G2, % of patients: 7.1%
  Hyperglycemia ≧ G2, patients: 1
  LDH elevation All grade, % of patients: 0 (0) %
  LDH elevation All grade, patients: 0 (0)
  LDH elevation ≧ G2, % of patients: 0 (0) %
  LDH elevation ≧ G2, patients: 0 (0)
  LDL elevation All grade, % of patients: 10.0%
  LDL elevation All grade, patients: 1
  LDL elevation ≧ G2, % of patients: 0 (0) %
  LDL elevation ≧ G2, patients: 0 (0)
  Low PLT All grade, % of patients: 0 (0) %
  Low PLT All grade, patients: 0 (0)
  Low PLT ≧ G2, % of patients: 0 (0) %
  Low PLT ≧ G2, patients: 0 (0)
  Low WBC All grade, % of patients: 8.3%
  Low WBC All grade, patients: 1
  Low WBC ≧ G2, % of patients: 8.3%
  Low WBC ≧ G2, patients: 1
  T. Bil elevation All grade, % of patients: 0 (0) %
  T. Bil elevation All grade, patients: 0 (0)
  T. Bil elevation ≧ G2, % of patients: 0 (0) %
  T. Bil elevation ≧ G2, patients: 0 (0)
  TG elevation All grade, % of patients: 0 (0) %
  TG elevation All grade, patients: 0 (0)
  TG elevation ≧ G2, % of patients: 0 (0) %
  TG elevation ≧ G2, patients: 0 (0)
  Weight, max: 73.0 kg
  Weight, mean: 53.6 kg
  Weight, median: 51.1 kg
  Weight, min: 46.0 kg
[1]; TOR 40 to 120 mg
  Body weight during dose escalation: remained stable
  Hot flushes and GOT/GPT elevation with an increase in the dose: only a few patients developed hot flushes and GOT/GPT elevation
[2]
  In vitro activity factor in the total activity of TOR (TOR = 1.0): 1.0
[3]
  Efficacy in patients with advanced breast cancer: equally effective
[4]
  Concentration on continuing the same dose: remained constant
